The source of these data is US9161922B2, “Amine oxidase inhibitors” (Case Western Reserve University, priority 2005, dated 2015).

Format in all cases: biochemical
Test [1] has as its target bovine plasma amine oxidase (BPAO) (Bos taurus (Bovine), UniProt Q29437). Briefly: Inactivation of bovine plasma amine oxidase (benzylamine oxidation rate, absorbance at 250 nm). On the procedure: The rate of oxidation of benzylamine to benzaldehyde was measured by recording the increase in absorbance at 250 nm for 1 minute and compared to the rate of benzylamine oxidation in a companion control solution of enzyme without inhibitor. The concentration of active BPAO was estimated from the rate of benzylamine oxidation. Inhibitory potency values (IC50 values) and partition values for inactivation of BPAO were measured at various times as in indicated in the Tables. IC50 values for lysyl oxidase (LO), arthrobacter globoformis amine oxidase (AGAO) and pichia pastoris lysyl oxidase (PPLO) were also measured in a similar manner.

Test [2] has as its target lysyl oxidase (LO) (Homo sapiens (Human), UniProt P28300). Description: Lysyl oxidase inhibition. To be noted: for IC75: 20 min, assay performed at Boston University; for IC50 (BPAO)/IC75(LO): ratio BPAO over LO. On the procedure:
(§1) In the following Examples, 0.9 mL aliquots of a solution of candidate inhibitor in 100 mM potassium phosphate buffer, pH 7.2 was mixed bovine plasma amine oxidase (0.1 mL, about […]) and incubated at 30° C. aerobically. Aliquots (0.1 mL) were periodically withdrawn using disposable calibrated Drummond micropipettes and diluted with 1.0 mL of benzylamine (5 mM in 50 mM sodium phosphate buffer, pH 7.2) in a 1 cm quartz cuvette (1.5 mL volume). The rate of oxidation of benzylamine to benzaldehyde was measured by recording the increase in absorbance at 250 nm for 1 minute and compared to the rate of benzylamine oxidation in a companion control solution of enzyme without inhibitor. The concentration of active BPAO was estimated from the rate of benzylamine oxidation. Inhibitory potency values (IC50 values) and partition values for inactivation of BPAO were measured at various times as in indicated in the Tables. IC50 values for lysyl oxidase (LO), arthrobacter globoformis amine oxidase (AGAO) and pichia pastoris lysyl oxidase (PPLO) were also measured in a similar manner.

Test [3] deals with arthrobacter globiformis amine oxidase (AGAO) (Arthrobacter globiformis, UniProt P46881). Description: Arthrobacter globiformis amine oxidase inhibition. How it is done: as §1
Test [4] addresses pichia pastoris lysyl oxidase (PPLO) (Komagataella pastoris (Yeast) (Pichia pastoris), UniProt Q96X16). Briefly: Pichia pastoris lysyl oxidase inhibition. To be noted: 30 min. On the procedure: as §1

Read-outs that look alike come from different tables or passages of the source.

Sequence of bovine plasma amine oxidase (BPAO) (Q29437 17-762): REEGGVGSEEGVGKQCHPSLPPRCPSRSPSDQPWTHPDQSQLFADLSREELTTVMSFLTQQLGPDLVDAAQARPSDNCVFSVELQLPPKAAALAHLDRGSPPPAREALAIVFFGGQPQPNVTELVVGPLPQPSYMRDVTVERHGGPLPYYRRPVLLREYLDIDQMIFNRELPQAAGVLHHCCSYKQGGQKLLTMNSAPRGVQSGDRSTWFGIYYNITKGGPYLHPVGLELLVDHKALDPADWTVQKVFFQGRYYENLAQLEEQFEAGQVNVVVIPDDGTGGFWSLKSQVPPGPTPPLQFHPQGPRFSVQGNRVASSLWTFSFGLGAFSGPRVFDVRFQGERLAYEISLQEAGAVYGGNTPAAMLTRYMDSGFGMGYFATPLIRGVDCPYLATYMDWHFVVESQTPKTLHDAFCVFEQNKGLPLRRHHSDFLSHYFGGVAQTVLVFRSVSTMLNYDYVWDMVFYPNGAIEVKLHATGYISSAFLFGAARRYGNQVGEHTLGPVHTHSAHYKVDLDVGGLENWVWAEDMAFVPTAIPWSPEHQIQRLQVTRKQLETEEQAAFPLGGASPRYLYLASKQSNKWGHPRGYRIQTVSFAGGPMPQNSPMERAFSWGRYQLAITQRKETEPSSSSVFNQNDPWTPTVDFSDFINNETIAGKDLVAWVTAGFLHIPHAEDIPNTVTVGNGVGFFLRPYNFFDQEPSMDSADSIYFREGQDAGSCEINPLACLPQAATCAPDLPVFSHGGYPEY
Sequence of lysyl oxidase (LO) (P28300 169-417, species assumed): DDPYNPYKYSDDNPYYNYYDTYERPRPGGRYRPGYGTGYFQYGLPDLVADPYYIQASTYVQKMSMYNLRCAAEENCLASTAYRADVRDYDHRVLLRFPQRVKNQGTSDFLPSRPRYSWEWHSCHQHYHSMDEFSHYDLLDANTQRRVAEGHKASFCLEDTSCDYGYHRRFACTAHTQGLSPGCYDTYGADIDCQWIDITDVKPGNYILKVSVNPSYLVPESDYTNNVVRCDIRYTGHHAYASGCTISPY
Sequence of pichia pastoris lysyl oxidase (PPLO) (Q96X16 entry or part of it): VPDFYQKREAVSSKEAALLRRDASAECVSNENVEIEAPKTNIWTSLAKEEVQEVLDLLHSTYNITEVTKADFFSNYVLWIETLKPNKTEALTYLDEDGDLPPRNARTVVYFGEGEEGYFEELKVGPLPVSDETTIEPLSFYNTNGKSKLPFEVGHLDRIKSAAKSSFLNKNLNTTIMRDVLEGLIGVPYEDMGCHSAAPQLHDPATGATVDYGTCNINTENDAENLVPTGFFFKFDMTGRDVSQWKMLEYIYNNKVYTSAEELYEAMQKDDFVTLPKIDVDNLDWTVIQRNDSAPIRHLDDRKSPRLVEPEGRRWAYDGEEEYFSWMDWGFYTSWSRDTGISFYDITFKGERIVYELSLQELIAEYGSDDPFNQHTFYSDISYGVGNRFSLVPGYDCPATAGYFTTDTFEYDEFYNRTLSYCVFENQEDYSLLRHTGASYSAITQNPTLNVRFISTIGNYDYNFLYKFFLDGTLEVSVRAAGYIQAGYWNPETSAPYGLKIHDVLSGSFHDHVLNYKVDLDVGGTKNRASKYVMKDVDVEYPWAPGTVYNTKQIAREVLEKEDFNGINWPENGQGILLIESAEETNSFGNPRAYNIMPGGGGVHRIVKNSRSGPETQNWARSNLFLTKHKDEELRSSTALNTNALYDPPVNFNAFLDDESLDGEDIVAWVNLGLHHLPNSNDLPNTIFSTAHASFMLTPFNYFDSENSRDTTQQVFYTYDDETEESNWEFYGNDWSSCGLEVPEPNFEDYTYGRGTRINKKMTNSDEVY

`NCC#CCC(N)C(=O)NCCc1ccccc1` (stereo not shown) [R = NHCH2CH2Ph] yielded a half-inhibitory concentration (IC50) in test [1] of 1800 µM. In addition, in test [2], the IC75 is 450 µM and the “IC50 (BPAO)/IC75(LO)” value stood at 1.11. Moreover, in test [3] (30 min), half-maximal inhibition (IC50) was put at 250 µM.
Take `CCN(CC)C(=O)C(N)CC#CCN` (stereo not shown) [R = NEt2]: the IC50 in test [1] came out at 10000 µM; in test [3] (determined on the basis of reversible competitive inhibition, read-out: IC50 (30 min) AGAO) it was 7 µM; in test [4], 5000 µM. For the same molecule, in test [2], the 75% effect concentration (IC75) amounted to 250 µM. For the same molecule, in test [2], the “IC50 (BPAO)/IC75(LO)” value stood at 40.
`CCOC(=O)CNC(=O)CNC(=O)C(N)CC#CCN` (stereo not shown) [R = NHCH2CONHCH2COOEt]: half-maximal inhibition in test [1] (IC50) was put at 90 µM. In addition, in test [2], it took 650 µM to reach the 75% level (IC75) and the “IC50 (BPAO)/IC75(LO)” value was 0.14. The IC50 in test [3] (30 min) was found to be 3500 µM.

The term IC50 denotes the midpoint of a concentration-inhibition curve. As a reminder, the IC75 is the point of the concentration-response curve where the effect stands at 75%. A higher IC75 goes with weaker potency.
